Reference: ChEMBL document CHEMBL1681698, “HY251, a novel decahydrocyclopenta[a]indene analog, from Aralia continentalis induces apoptosis via down-regulation of AR expression in human prostate cancer LNCaP cells” (Bioorg Med Chem Lett, 2011)
Active and inactive are the calls of the source. The rule behind the calls is not given here.

Key:
LNCaP [1] = experiment: Induction of apoptosis in human androgen-dependent LNCAP cells assessed as […] after 24 hrs by MTT assay; assay type: functional, cell-based
LNCaP [2] = experiment: Induction of apoptosis in human androgen-dependent LNCAP cells assessed as nuclei DNA fragmentation at 95 uM after 24 hrs by TUNEL assay; assay type: functional, cell-based
LNCaP [3] = experiment: Induction of apoptosis in human androgen-dependent LNCAP cells assessed as increase in active caspase 9 at 95 uM up to 48 hrs by Western blot analysis; assay type: functional, cell-based
LNCaP [4] = experiment: Induction of apoptosis in human androgen-dependent LNCAP cells assessed as increase in active caspase 3 at 95 uM up to 48 hrs by Western blot analysis; assay type: functional, cell-based
LNCaP [5] = experiment: Induction of apoptosis in human androgen-dependent LNCAP cells assessed as PARP cleavage at 95 uM after 12 hrs by Western blot analysis; assay type: functional, cell-based
LNCaP [6] = experiment: Induction of apoptosis in human androgen-dependent LNCAP cells assessed as cytochrome c release from mitochondria at 95 uM after 24 hrs by Western blot analysis; assay type: functional, cell-based
LNCaP [7] = experiment: Induction of apoptosis in human androgen-dependent LNCAP cells assessed as inhibition of androgen receptor expression at 95 uM by Western blot analysis; assay type: functional, cell-based; conditions: TDE = time-dependent effect
LNCaP [8] = experiment: Induction of apoptosis in human androgen-dependent LNCAP cells assessed as inhibition of PSA protein expression at 95 uM by Western blot analysis; assay type: functional, cell-based; conditions: TDE = time-dependent effect
LNCaP [9] = experiment: Induction of apoptosis in human androgen-dependent LNCAP cells assessed as inhibition of androgen receptor gene expression at 95 uM by RT-PCR analysis; assay type: functional, cell-based
LNCaP [10] = experiment: Induction of apoptosis in human androgen-dependent LNCAP cells assessed as inhibition of PSA gene expression at 95 uM by RT-PCR analysis; assay type: functional, cell-based
LNCaP [11] = experiment: Induction of apoptosis in human androgen-dependent LNCAP cells assessed as inhibition of androgen receptor gene expression at 95 uM by RT-PCR analysis in presence of 1 nM […]; assay type: functional, cell-based
LNCaP [12] = experiment: Induction of apoptosis in human androgen-dependent LNCAP cells assessed as inhibition of PSA gene expression at 95 uM by RT-PCR analysis in presence of 1 nM […]; assay type: functional, cell-based
[13] = Induction of apoptosis in human hormone-refractory C4-2B cells assessed as cell viability after 24 hrs by MTT assay; assay type: functional; conditions: LNCaP C4-2B

Q: What does the source list for C=CC1CC2(O)CC3(O)CCC=CC3C2(O)C1(O)CCC (stereo not drawn)?
A: IC50 (LNCaP [1]): 95 µM; Activity (LNCaP [2]): Active; Activity (LNCaP [3]): Active; Activity (LNCaP [4]): Active; Activity (LNCaP [5]): Active; Activity (LNCaP [6]): Active; Activity (LNCaP [7]): tde; Activity (LNCaP [8]): tde; Activity (LNCaP [9]): Active; Activity (LNCaP [10]): Active; Activity (LNCaP [11]): Active; Activity (LNCaP [12]): Active; IC50 [13]: 199 µM
